One assay relates to CD63. The assay is described as follows: In situ immunofluorescence for CD63 on muscle sections. The class given is in vivo, mdx mice. As to the method: (§1) Animals were used at the specified age and treated for the indicated periods with daily intra peritoneal injections of Trichostatin A, TSA (0.6 mg/kg/day; #T8552, Sigma), dissolved in phospate-saline solution or in phospate-saline alone as vehicle control (CTR). Muscle injury was performed by intramuscular injection in Tibliais Anterior (TA) of Cardiotoxin—CTX− (10 μM, 10 mg/mL) (#L8102, Lotaxan Valence, France, http://www.latoxan.com), 3 days before mice sacrifice.
For immunofluorescence analysis, cryo-sections and cells were fixed in 4% PFA for 10 min and permeabilized with 100% cold acetone (#32201, Sigma) for 6 min at −20° C. or 100% cold Methanol (#32213, Sigma) for 6 min at −20° or with 0.25% Triton for 15 min at RT. Muscle sections were blocked for 1 h with a solution containing 4% BSA (#A7030, Sigma) in PBS. […] Sections were incubated with DAPI in PBS for 5 minutes for nuclear staining, washed in PBS, and mounted with glycerol 3:1 in PBS. […]

Another assay relates to miR-206. Kind of assay: qPCR of exosomal miR-206 from dissociated tibialis anterior muscles. The class given is in vivo, mdx mice. The following applies: TSA-treated mdx muscle compared to untreated control. The protocol: Exosomes were purified from tibialis anterior gently dissociated in serum-free DMEM (24 h). Cell debris and organelles were eliminated by centrifugation at 2,000 g for 20 min and exosomes were isolated using TEIR.
For microRNA validation, Total exosomal RNA was extracted with Total Exosome RNA Protein Isolation Kit (#4478545, Invitrogen by Thermo Fisher Scientific) and was retro-transcribed using the Qiagen reverse transcription kit (miScript II RT Kit, #218161, Qiagen) and pre-amplified using (miScript PreAMP PCR Kit, #331451, Qiagen).
All the conditions are provided in the manufacturer protocol.
Of note, transgenic miR-206 upregulation has been exploited as tool for the treatment of DMD and other muscular disorders (Liu et al., 2012; Williams et al., 2009; Fry et al., 2017). […] The same pattern could be observed in mdx mice, in which an abundant miR-206 signal was detected in the interstitium of tibialis anterior muscles, overlapping with the immunofluorescence staining of the FAP's marker Sca-1 (FIG. 3H). […] We performed a quantitative assessment of exosomal miR-206, by isolating whole tibialis anterior (TA) muscles from TSA-treated mdx muscle or untreated control mdx mice, followed by gentle dissociation and exosome isolation.
On the technique in general: Real-time PCR tracks product formation cycle by cycle.

A further assay deals with Notch1. The assay is described as follows: Notch1 transcripts in MuSCs isolated from treated mdx mice. The format is in vivo. As to conditions: MuSCs isolated from mdx mice treated with TSA. As to the method:
as §1
For RNA-sequencing sample preparation, MuSCs and FAPs were freshly isolated by FACS from 6 C57BI6 mdx male mice 8-weeks old treated or not with TSA for 15 days. RNA was collected using Trizol) reagent (#T9424, Sigma). About 100 ng/μL of total RNA was sent in duplicate to IGA (Istituto di Genomica Applicata, Udine) for RNA sequencing using Illumina TruSeq Stranded Total RNA kit Ribo-Zero GOLD on Illumina Hiseq2500 platform.
To investigate this hypothesis, we evaluated the effect of FAP-derived exosomes from HDACi-treated or control-treated mdx mice on MuSCs within single fibres isolated from WT mice. Freshly isolated single muscle fibres from tibialis anterior, extensor digitorum longus, gastrocnemius and soleus of C57BL6J mice were incubated with FAP-derived exosomes or whole conditioned media, and their effect on MuSCs was evaluated by monitoring the expression of Pax7, MyoD and DNA synthesis (EdU incorporation). […]

Assay [1] concerns miRs within FAP-derived exosomes. Kind of assay: Taqman-based miR expression microarray of FAP-derived exosomes. The following applies: mdx mice treated for 15 days with TSA vs control vehicle. The format is in vivo. As to the method: Total exosomal RNA was extracted with Total Exosome RNA Protein Isolation Kit (#4478545, Thermo Fisher Scientific). TaqMan MicroRNA Assays were performed according to the manufacturer's recommended protocols (Applied Biosystems) The threshold cycle (Ct) were defined as the fractional cycle number at which the fluorescence passes the fixed threshold. U6 snRNA served as an endogenous control for normalization.
In particular, total exosomal-RNA was retro-transcribed using TaqMan MicroRNA Reverse Transcription Kit (#4366596, ThermoFisher Scientific)
For greater sensitivity, the cDNA was pre-amplified using Taqman PREAMP master mix (#4391128, ThermoFisher Scientific) and Megaplex PreAMP Primers and then amplified using high multiplexed Megaplex Primer Pool (#4444766, ThermoFisher Scientific) and the TaqMan 2× Universal Master Mix II (#4440040, ThermoFisher Scientific) on TaqMan rodent MicroRNA A/B cards Array version 3.0 (#4444909, ThermoFisher Scientific).
We then determined the identity of the miRs within FAP-derived exosomes, by performing a Taqman-based miR expression microarray from exosomes isolated from the supernatant of FAPs derived by mdx mice treated for 15 days with TSA or control vehicle (CTR).

In another assay the test system is mdx mice. The following applies: young vs old mdx mice; Mozzetta et al. 2013, Saccone et al. 2014; cited from earlier work.

The text below walks through data of patent US20210268030A1, “FIBROADIPOGENIC PROGENITOR-DERIVED EXOSOMES FOR REGENERATION OF DYSTROPHIC MUSCLES” (EXOFIX S.R.L., priority 2018, published 2021).

Molecules are shown by their SMILES.

Regarding `CC(/C=C/C(=O)NO)=C\[C@@H](C)C(=O)c1ccc(N(C)C)cc1` [TSA, Trichostatin A], the “CD63 signal in the interstitium of muscles” value in the assay with CD63 (1 year-old mdx mice) is “could not increase”. The CD63-positive interstitial signal result with CD63 (mdx young mice (1.5-month), compared to young mdx CTR) is given as “significant increase”. In the assay with miR-206, the “increase of miR-206” value is around 7 fold. For the same compound, the Notch1 transcripts entry in the assay on Notch1 is given as “reduced”. The “miRs in exosomes from FAPs” value in assay [1] is recorded as “several miRs up-regulated”. For the same compound, the regeneration entry with mdx mice was “promotes regeneration in young, but not old”.
